According to the NIST ThermoML archive (doi:10.1016/j.jct.2009.11.014):

Conditions: Liquid; for viscosity: Stony Brook Scientific falling needle HPHTV-100 viscometer; for mass density: vibrating tube

CCn1cc[n+](C)c1.F[B-](F)(F)F [1-ethyl-3-methylimidazolium tetrafluoroborate]
Conditions	mass density [kg/m3]	viscosity [mPa·s]
282.55 K, 100 kPa	–	67.8
282.55 K, 700 kPa	–	69.1
282.55 K, 1700 kPa	–	70.1
282.55 K, 2700 kPa	–	71.6
282.55 K, 4400 kPa	–	72.9
282.55 K, 6100 kPa	–	74.3
282.55 K, 8200 kPa	–	75.5
282.55 K, 10300 kPa	–	76.1
282.55 K, 12900 kPa	–	77.9
282.55 K, 14100 kPa	–	79.3
283.15 K, 100 kPa	1297.04	–
283.15 K, 2000 kPa	1297.83	–
283.15 K, 4000 kPa	1298.68	–
283.15 K, 6000 kPa	1299.52	–
283.15 K, 8000 kPa	1300.36	–
283.15 K, 10000 kPa	1301.22	–
283.15 K, 12000 kPa	1302.03	–
283.15 K, 14000 kPa	1302.82	–
283.15 K, 20000 kPa	1305.3	–
283.15 K, 30000 kPa	1309.33	–
283.15 K, 40000 kPa	1313.27	–
283.15 K, 50000 kPa	1317.06	–
283.15 K, 60000 kPa	1320.84	–
288.15 K, 100 kPa	1293.21	–
288.15 K, 2000 kPa	1294.02	–
288.15 K, 4000 kPa	1294.88	–
288.15 K, 6000 kPa	1295.72	–
288.15 K, 8000 kPa	1296.59	–
288.15 K, 10000 kPa	1297.45	–
288.15 K, 12000 kPa	1298.29	–
288.15 K, 14000 kPa	1299.08	–
288.15 K, 20000 kPa	1301.58	–
288.15 K, 30000 kPa	1305.62	–
288.15 K, 40000 kPa	1309.54	–
288.15 K, 50000 kPa	1313.39	–
288.15 K, 60000 kPa	1317.17	–
293.15 K, 100 kPa	1289.36	–
293.15 K, 2000 kPa	1290.17	–
293.15 K, 4000 kPa	1291.05	–
293.15 K, 6000 kPa	1291.91	–
293.15 K, 8000 kPa	1292.79	–
293.15 K, 10000 kPa	1293.63	–
293.15 K, 12000 kPa	1294.48	–
293.15 K, 14000 kPa	1295.29	–
293.15 K, 20000 kPa	1297.8	–
293.15 K, 30000 kPa	1301.86	–
293.15 K, 40000 kPa	1305.84	–
293.15 K, 50000 kPa	1309.69	–
293.15 K, 60000 kPa	1313.49	–
293.75 K, 6300 kPa	–	46.1
293.75 K, 8200 kPa	–	47.5
293.75 K, 10100 kPa	–	48.4
293.75 K, 12400 kPa	–	49.3
293.85 K, 100 kPa	–	43.4
293.85 K, 700 kPa	–	43.7
293.85 K, 1700 kPa	–	44.1
293.85 K, 2700 kPa	–	44.4
293.85 K, 4200 kPa	–	44.9
293.85 K, 14500 kPa	–	49.7
298.15 K, 100 kPa	1285.51	–
298.15 K, 2000 kPa	1286.33	–
298.15 K, 4000 kPa	1287.22	–
298.15 K, 6000 kPa	1288.13	–
298.15 K, 8000 kPa	1289.02	–
298.15 K, 10000 kPa	1289.83	–
298.15 K, 12000 kPa	1290.7	–
298.15 K, 14000 kPa	1291.53	–
298.15 K, 20000 kPa	1294.05	–
298.15 K, 30000 kPa	1298.17	–
298.15 K, 40000 kPa	1302.18	–
298.15 K, 50000 kPa	1306.09	–
298.15 K, 60000 kPa	1309.95	–
303.15 K, 100 kPa	1281.74	–
303.15 K, 2000 kPa	1282.57	–
303.15 K, 4000 kPa	1283.44	–
303.15 K, 6000 kPa	1284.35	–
303.15 K, 8000 kPa	1285.26	–
303.15 K, 10000 kPa	1286.08	–
303.15 K, 12000 kPa	1287	–
303.15 K, 14000 kPa	1287.82	–
303.15 K, 20000 kPa	1290.4	–
303.15 K, 30000 kPa	1294.54	–
303.15 K, 40000 kPa	1298.58	–
303.15 K, 50000 kPa	1302.56	–
303.15 K, 60000 kPa	1306.43	–
303.95 K, 10300 kPa	–	34.2
304.05 K, 120 kPa	–	30.9
304.05 K, 680 kPa	–	31.1
304.05 K, 1730 kPa	–	31.2
304.05 K, 2710 kPa	–	31.4
304.05 K, 4300 kPa	–	32.2
304.05 K, 6340 kPa	–	32.6
304.05 K, 8250 kPa	–	33.1
304.05 K, 12210 kPa	–	34.3
304.05 K, 14300 kPa	–	35.2
308.15 K, 100 kPa	1277.93	–
308.15 K, 2000 kPa	1278.81	–
308.15 K, 4000 kPa	1279.69	–
308.15 K, 6000 kPa	1280.58	–
308.15 K, 8000 kPa	1281.46	–
308.15 K, 10000 kPa	1282.35	–
308.15 K, 12000 kPa	1283.22	–
308.15 K, 14000 kPa	1284.11	–
308.15 K, 20000 kPa	1286.68	–
308.15 K, 30000 kPa	1290.85	–
308.15 K, 40000 kPa	1294.96	–
308.15 K, 50000 kPa	1298.92	–
308.15 K, 60000 kPa	1302.82	–
313.15 K, 100 kPa	1274.17	–
313.15 K, 2000 kPa	1275.04	–
313.15 K, 4000 kPa	1275.93	–
313.15 K, 6000 kPa	1276.8	–
313.15 K, 8000 kPa	1277.73	–
313.15 K, 10000 kPa	1278.61	–
313.15 K, 12000 kPa	1279.51	–
313.15 K, 14000 kPa	1280.39	–
313.15 K, 20000 kPa	1283.04	–
313.15 K, 30000 kPa	1287.29	–
313.15 K, 40000 kPa	1291.42	–
313.15 K, 50000 kPa	1295.43	–
313.15 K, 60000 kPa	1299.37	–
313.65 K, 10170 kPa	–	25.7
313.65 K, 12290 kPa	–	26
313.65 K, 14100 kPa	–	26.2
313.75 K, 1760 kPa	–	23.8
313.75 K, 2730 kPa	–	24.1
313.75 K, 4350 kPa	–	24.5
313.75 K, 6270 kPa	–	24.9
313.75 K, 8230 kPa	–	25.1
313.85 K, 100 kPa	–	23.3
313.85 K, 700 kPa	–	23.4
313.85 K, 10300 kPa	–	25.6
318.15 K, 100 kPa	1270.39	–
318.15 K, 2000 kPa	1271.3	–
318.15 K, 4000 kPa	1272.25	–
318.15 K, 6000 kPa	1273.14	–
318.15 K, 8000 kPa	1274.05	–
318.15 K, 10000 kPa	1274.96	–
318.15 K, 12000 kPa	1275.87	–
318.15 K, 14000 kPa	1276.72	–
318.15 K, 20000 kPa	1279.36	–
318.15 K, 30000 kPa	1283.7	–
318.15 K, 40000 kPa	1287.8	–
318.15 K, 50000 kPa	1291.92	–
318.15 K, 60000 kPa	1295.92	–
323.15 K, 100 kPa	1266.69	–
323.15 K, 2000 kPa	1267.58	–
323.15 K, 4000 kPa	1268.52	–
323.15 K, 6000 kPa	1269.45	–
323.15 K, 8000 kPa	1270.37	–
323.15 K, 10000 kPa	1271.28	–
323.15 K, 12000 kPa	1272.19	–
323.15 K, 14000 kPa	1273.08	–
323.15 K, 20000 kPa	1275.76	–
323.15 K, 30000 kPa	1280.1	–
323.15 K, 40000 kPa	1284.32	–
323.15 K, 50000 kPa	1288.41	–
323.15 K, 60000 kPa	1292.42	–
323.65 K, 100 kPa	–	18.4
323.65 K, 700 kPa	–	18.6
323.65 K, 1700 kPa	–	18.7
323.75 K, 1200 kPa	–	18.5
323.75 K, 2300 kPa	–	18.7
323.75 K, 4200 kPa	–	18.9
323.75 K, 4500 kPa	–	18.9
323.75 K, 6100 kPa	–	19
323.75 K, 6600 kPa	–	19.4
323.75 K, 8200 kPa	–	19.3
323.75 K, 10200 kPa	–	19.7
323.75 K, 12400 kPa	–	19.9
323.75 K, 14300 kPa	–	20.1
